Patent US8575106B2, “Cosmetic uses of modified stressed yeast extracts and related compositions” (Avon Products, Inc., priority 2009, dated 2013)

What was measured:
[1] = system: B16 mouse melanoma cell lines; assay: Melanin synthesis in B16 cells, normalized to cell viability (MTT); type: cell-based; conditions: 100 μM 2-APB, 7 days, relative to control
Procedure: Next, the effects of 2-APB and modified peptide fractions having a zinc-complexed peptide comprising SEQ ID NO:1 on melanin synthesis were examined in B16 cells. B16 mouse melanoma cell lines (ATCC, cat. #: CRL-6475) were grown in 96-well tissue culture treated dishes (Falcon) and treated with a test compound to determine its ability to modulate pigment formation (melanin synthesis). Specifically, cells were exposed to 100 μM 2-APB or modified yeast peptide fractions comprising different concentrations of zinc-complexed peptide comprising SEQ ID NO:1, including 1% and 0.1% zinc-complexed peptide, for seven (7) days. Following the treatment period, the level of melanin synthesized was quantified using a Packard micro-plate reader at 540 nm.
After quantifying the amount of melanin synthesized, cell viability was determined using the MTT conversion method. […] After melanin synthesis quantification, the cultures were exposed to MTT dye solution with a concentration of 1 mg/ml for three hours. […] MTT dye uptake and conversion by viable cells was determined by measuring the extracted formazan at 570 nm using a Packard micro-plate reader.
After normalizing to cell viability, total pigmentation then was calculated, and expressed as a percent activity of control. […]

B16 melanoma cells = assay: Calcium influx into B16 melanoma cells (Fluo-4 NW Calcium Assay, Thapsigargin-stimulated); type: cell-based, mouse; conditions: 100 μM 2-APB, area under curve of calcium influx peak vs vehicle control
Procedure: Modified yeast peptide fractions comprising a zinc-complexed peptide comprising SEQ ID NO:1 were tested in vitro for the ability to inhibit calcium influx into pigment-producing cells. An experiment was designed to measure intracellular calcium in B16 melanoma cells using Fluo-4 NW Calcium Assay Kits (Invitrogen) as per manufacturer's instructions. B16 mouse melanoma cell lines (ATCC, cat. #: CRL-6475) were grown in 96-well tissue culture treated dishes in growth medium. Prior to calcium treatment, growth medium from the B16 cell cultures was removed and 100 μL of the dye loading solution was added quickly to each well of a 96-well plate. Plates were incubated at 37° C. for 30 minutes, then at room temperature for an additional 30 minutes. Dye buffer was removed and plates were washed once with 1×PBS and replaced with an assay buffer that contains calcium (and was formed according to the manufacturer's directions) along with a test compound. […]
Fluorescence was measured using a micro-plate reader at excitation/emission wavelengths of 485 nm/530 nm, respectively. The reader was set to read florescence every 30 seconds for a period of 5 minutes. […] The fluorescence micro-plate reader was set to take fluorescence measurements every 30 seconds for a period of 30 minutes, again at excitation/emission wavelengths of 485 nm/530 nm, respectively. […]

Question: Which results are given for NCCOB(c1ccccc1)c1ccccc1 [2-APB, 2-aminoethyl diphenylborate]?
Answer: inhibition of melanin synthesis [1]: 77%; inhibition of calcium entry into the cells (B16 melanoma cells): 86%
